Assay results from the SangsterLogP compilation.

assay: method code SF-AS, from PMID: 4559156; conditions: pH 7.4

Row | Structure (SMILES) | logD
1 | O=[N+]([O-])c1cnc(N=C2NCC(O)CN2)s1 (stereo not given) | 0.74
2 | O=[N+]([O-])c1cnc(N=C2NCCO2)s1 | 0.57
3 | O=[N+]([O-])c1cnc(NC2=NCCN2)s1 | 1.38
4 | O=[N+]([O-])c1cnc(N=C2NCCN2CCO)s1 | 1.23
5 | CCN1CCNC1=Nc1ncc([N+](=O)[O-])s1 | 2.28
6 | CC(=O)OCCN1CCS/C1=N/c1ncc([N+](=O)[O-])s1 | 1.88
7 | CN1CCN(C)C1=Nc1ncc([N+](=O)[O-])s1 | 0.92
8 | O=[N+]([O-])c1cnc(/N=C2/SCCN2CCO)s1 | 1.28
9 | O=[N+]([O-])c1cnc(/N=C2/OCCN2CCO)s1 | 0.43
10 | CC1N=C(Nc2ncc([N+](=O)[O-])s2)OC1(C)C (stereo not given) | 1.88
11 | CN1CCN=C1Nc1ncc([N+](=O)[O-])s1 | 1.8
12 | CC1CN(C)C(=Nc2ncc([N+](=O)[O-])s2)N1 (stereo not given) | 1.95
13 | CC1CNC(=Nc2ncc([N+](=O)[O-])s2)N1C (stereo not given) | 2.02
14 | CN1CC(O)CN(C)C1=Nc1ncc([N+](=O)[O-])s1 (stereo not given) | 0.16
15 | CC1(C)NC(=Nc2ncc([N+](=O)[O-])s2)OC1(C)C | 2.4
